The subject of data set [1] is Mycobacterium tuberculosis H37Rv (susceptible; ATCC: 25177). The data set is described as follows: Resazurin Microplate Assay (REMA), anti-tubercular activity, susceptible strain. The data set is classed as cell-based. Conditions: 192 h, read-out: MIC (μg/mL) Susceptible (H37Rv), H37Rv, ATCC: 25177, 8 days incubation at 37° C. For orientation: The colour change of resazurin is a common sign of viable cells or microbes.

The structures appear in SMILES notation.

Drawing on patent US11939294B1 (priority 2023, dated 2024), this text covers melting point and MIC for 4 compounds.

For orientation: melting point means the temperature of the solid-liquid transition.

Regarding `Cc1cc(C)c[n+](CC(=O)c2ccc(Cl)cc2)c1.[Br-]`, the melting point is 125 °C.
`Cc1cc(C)c[n+](CC(=O)c2ccc(F)cc2)c1.[Br-]` [Compound 3d, 1-(2-(4-Fluorophenyl)-2-oxoethyl)-3,5-dimethylpyridin-1-ium bromide]: the melting point is 123 °C. The MIC in data set [1] is roughly 8 µg/mL.
Compound `Cc1cc(C)c[n+](CC(=O)c2ccc(Br)cc2)c1.[Br-]` gave a melting point of 210 °C.
Regarding `COc1ccc(C(=O)C[n+]2cc(C)cc(C)c2)cc1.[Br-]`, the melting point came out at 108 °C.
